According to ChEMBL document CHEMBL5113413, “New peptidomimetic rhodesain inhibitors with improved selectivity towards human cathepsins” (Eur J Med Chem, 2022):
pEC50, pKi: −log10 of the molar value. Active and inactive are the calls of the source. The calls are words filed in the database; no cut-off is given here.

Tests used:
[1] = molecular target: Rhodesain (Trypanosoma brucei rhodesiense, UniProt Q95PM0); test: Irreversible inhibition of Trypanosoma brucei rhodesiense rhodesain assessed as inhibition constant using Cbz-Phe-Arg-AMC as fluorogenic substrate by fluorometric assay
Sequence of Rhodesain (Q95PM0 whole entry): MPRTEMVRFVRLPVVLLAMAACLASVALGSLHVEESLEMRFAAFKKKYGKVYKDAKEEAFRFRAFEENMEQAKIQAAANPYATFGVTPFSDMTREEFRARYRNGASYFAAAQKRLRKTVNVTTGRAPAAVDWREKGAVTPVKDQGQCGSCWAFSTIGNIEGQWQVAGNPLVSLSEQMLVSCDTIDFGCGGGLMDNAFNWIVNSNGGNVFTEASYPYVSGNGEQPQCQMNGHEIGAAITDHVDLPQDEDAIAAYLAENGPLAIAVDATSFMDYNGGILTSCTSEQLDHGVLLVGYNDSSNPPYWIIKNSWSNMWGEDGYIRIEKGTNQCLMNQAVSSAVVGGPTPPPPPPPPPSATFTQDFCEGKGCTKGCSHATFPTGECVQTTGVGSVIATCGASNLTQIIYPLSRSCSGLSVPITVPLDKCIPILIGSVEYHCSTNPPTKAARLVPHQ

[2] = molecular target: T1, Procathepsin L (Homo sapiens, UniProt P07711); test: Irreversible inhibition of human Cathepsin L assessed as inhibition constant using Cbz-Phe-Arg-AMC as fluorogenic substrate by fluorometric assay
Target sequence in this assay (P07711 whole entry): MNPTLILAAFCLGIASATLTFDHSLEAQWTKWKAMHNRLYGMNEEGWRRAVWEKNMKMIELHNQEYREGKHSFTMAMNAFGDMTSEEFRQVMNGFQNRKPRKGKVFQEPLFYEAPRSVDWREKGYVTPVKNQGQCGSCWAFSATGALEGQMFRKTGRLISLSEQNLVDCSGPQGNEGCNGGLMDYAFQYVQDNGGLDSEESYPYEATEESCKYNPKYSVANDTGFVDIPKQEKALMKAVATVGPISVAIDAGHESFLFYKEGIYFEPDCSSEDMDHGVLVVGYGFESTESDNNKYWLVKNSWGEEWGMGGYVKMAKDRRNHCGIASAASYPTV

[3] = molecular target: T2, Cathepsin B (Homo sapiens, UniProt P07858); test: Inhibition of human Cathepsin B at 20 uM using Cbz-Phe-Arg-AMC as fluorogenic substrate by fluorometric assay
[4] = Cytotoxicity against mouse J774.1 cells assessed as reduction in cell viability incubated for 48 hrs by MTT assay; type: toxicity, cell-based
[5] = molecular target: Rhodesain (Trypanosoma brucei rhodesiense) (UniProt Q95PM0); test: Irreversible inhibition of Trypanosoma brucei rhodesiense rhodesain assessed as no recovery of enzyme activity preincubated for 30 mins followed by substrate addition using Cbz-Phe-Arg-AMC as fluorogenic substrate by fluorometric 100-fold dilution assay
Sequence of Rhodesain (Trypanosoma brucei rhodesiense) (Q95PM0 1-450): as the sequence (Q95PM0 whole entry) above

[6] = tested on: Trypanosoma brucei brucei; test: Antitrypanosomal activity against Trypanosoma brucei brucei BS449 assessed as luminescence incubated for 48 hrs by ATPlite assay; type: functional, organism-based; conditions: BS449, 48 h
[7] = molecular target: Rhodesain (Trypanosoma brucei rhodesiense) (UniProt Q95PM0); test: Irreversible inhibition of Trypanosoma brucei rhodesiense rhodesain assessed as Kinact using Cbz-Phe-Arg-AMC as fluorogenic substrate by fluorometric assay
[8] = molecular target: Rhodesain (Trypanosoma brucei rhodesiense) (UniProt Q95PM0); test: Irreversible inhibition of Trypanosoma brucei rhodesiense rhodesain assessed as second order rate constant using Cbz-Phe-Arg-AMC as fluorogenic substrate by fluorometric assay
[9] = molecular target: T1, Procathepsin L; test: Irreversible inhibition of human Cathepsin L assessed as Kinact using Cbz-Phe-Arg-AMC as fluorogenic substrate by fluorometric assay
Target sequence in this assay (P07711 114-333 limits assumed): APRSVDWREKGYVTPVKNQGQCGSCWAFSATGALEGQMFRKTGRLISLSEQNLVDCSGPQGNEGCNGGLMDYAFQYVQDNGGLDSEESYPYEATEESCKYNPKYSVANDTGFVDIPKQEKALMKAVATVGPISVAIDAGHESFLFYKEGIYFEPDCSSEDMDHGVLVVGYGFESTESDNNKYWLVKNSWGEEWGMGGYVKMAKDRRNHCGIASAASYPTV

[10] = molecular target: T1, Procathepsin L; test: Irreversible inhibition of human Cathepsin L assessed as second order rate constant using Cbz-Phe-Arg-AMC as fluorogenic substrate by fluorometric assay
Target sequence in this assay (P07711 114-333 limits assumed): as above

[11] = molecular target: T2, Cathepsin B; test: Irreversible inhibition of human Cathepsin B assessed as inhibition constant using Cbz-Phe-Arg-AMC as fluorogenic substrate by fluorometric assay
[12] = molecular target: T2, Cathepsin B; test: Irreversible inhibition of human Cathepsin B assessed as Kinact using Cbz-Phe-Arg-AMC as fluorogenic substrate by fluorometric assay
[13] = molecular target: T2, Cathepsin B; test: Irreversible inhibition of human Cathepsin B assessed as second order rate constant using Cbz-Phe-Arg-AMC as fluorogenic substrate by fluorometric assay
[14] = molecular target: T3, 20S proteasome (Homo sapiens) (UniProt P49721+P20618+P28074+P28062+P28065+P28072+P25786+P25787+P25788+P25789+P28066+P60900+O14818+Q8TAA3+P40306+A5LHX3+P49720+P28070+Q99436); test: Inhibition of human 20S proteasome caspase-like activity at 11 uM using Cbz-Leu-Leu-Glu-AMC as fluorogenic substrate by fluorometric assay; type: protein-complex assay
[15] = molecular target: Genome polyprotein (dengue virus type 2) (UniProt P29990); test: Inhibition of Dengue virus NS2B-NS3 protease at 11 uM using Boc-Gly-Arg-Arg-AMC as fluorogenic substrate by fluorometric assay
[16] = molecular target: Rhodesain (Trypanosoma brucei rhodesiense) (UniProt Q95PM0); test: Inhibition of Trypanosoma brucei rhodesiense rhodesain at 20 uM using Cbz-Phe-Arg-AMC as fluorogenic substrate by fluorometric assay
[17] = molecular target: T1, Procathepsin L; test: Inhibition of human Cathepsin L at 20 uM using Cbz-Phe-Arg-AMC as fluorogenic substrate by fluorometric assay
Target sequence in this assay (P07711 114-333 limits assumed): as above

[18] = molecular target: Rhodesain (Trypanosoma brucei rhodesiense) (UniProt Q95PM0); test: Reversible inhibition of Trypanosoma brucei rhodesiense rhodesain assessed as recovery of enzyme activity preincubated for 30 mins followed by substrate addition using Cbz-Phe-Arg-AMC as fluorogenic substrate by fluorometric 100-fold dilution assay
[19] = molecular target: T3, 20S proteasome (Homo sapiens); test: Inhibition of human 20S proteasome chymotrypsin-like activity at 11 uM using Succ-Leu-Leu-Val-Tyr-AMC as fluorogenic substrate by fluorometric assay; type: protein-complex assay
[20] = molecular target: T3, 20S proteasome (Homo sapiens); test: Inhibition of human 20S proteasome trypsin-like activity at 11 uM using Boc-Leu-Arg-Arg-AMC as fluorogenic substrate by fluorometric assay; type: protein-complex assay

| Structure (SMILES) | pKi [1] | pKi [2] | CC50 at 48 h [4] [nM] | pEC50 [6] | Kinact [7] [s⁻¹] | Second-order inactivation rate constant (kinact/Ki) [8] | also measured |
| --- | --- | --- | --- | --- | --- | --- | --- |
| O=C(NCc1ccccc1C(=O)N[C@H](/C=C(\F)S(=O)(=O)c1ccccc1)CCc1ccccc1)c1ccncc1 | 6.37 | 4.85 | – | – | – | – | inhibition [3]: < 10% |
| CN1CCN(C(=O)N[C@@H](Cc2ccccc2)C(=O)N[C@H](/C=C/S(=O)(=O)c2ccccc2)CCc2ccccc2)CC1 [K-777] | – | – | 41000 | – | – | – | inhibition [5]: Active |
| O=C(NCc1ccccc1C(=O)N[C@H](/C=C(\F)S(=O)(=O)Oc1ccccc1)CCc1ccccc1)c1ccncc1 | 6.04 | – | > 100000 | 5.74 | – | – | – |
| O=C(NCc1ccccc1C(=O)N[C@H](/C=C/S(=O)(=O)c1ccccc1)CCc1ccccc1)c1ccncc1 | 6.97 | 5.65 | – | – | 0.0046 | 0.43 10^5/M/s | Kinact [9]: 0.0026 s⁻¹; Second-order inactivation rate constant [10]: 1.16 10^3/M/s; inhibition [3]: 44% |
| O=C(NCc1ccccc1C(=O)N[C@H](/C=C/S(=O)(=O)c1ccccc1)CCc1ccccc1)c1cc(F)cc(F)c1 | 6.96 | 5.72 | – | – | 0.0173 | 1.59 10^5/M/s | Kinact [9]: 0.0045 s⁻¹; Second-order inactivation rate constant [10]: 2.38 10^3/M/s; pKi [11]: 5.52; Kinact [12]: 0.0022 s⁻¹; Kdiss [13]: 7.24 10^2/M/s; inhibition [14]: 24%; inhibition [15]: 11% |
| CN1CCN(C(=O)NCc2ccccc2C(=O)N[C@H](/C=C(\F)S(=O)(=O)c2ccccc2)CCc2ccccc2)CC1 | – | – | – | – | – | – | inhibition [16]: 18% |
| CC(=O)N(Cc1ccccc1C(=O)N[C@H](/C=C/S(=O)(=O)c1ccccc1)CCc1ccccc1)C(C)=O | 6.03 | – | 36000 | 5.24 | – | – | – |
| CNC(=O)Cc1ccccc1C(=O)N[C@H](/C=C/S(=O)(=O)c1ccccc1)CCc1ccccc1 | 6.33 | – | > 100000 | 4.89 | – | – | – |
| O=C(NCc1ccccc1C(=O)N[C@H](/C=C/S(=O)(=O)Cc1ccccc1)CCc1ccccc1)c1ccncc1 | 6.36 | – | – | – | 0.006 | 0.14 10^5/M/s | – |
| O=C(NCc1ccccc1C(=O)N[C@H](/C=C(\F)S(=O)(=O)Cc1ccccc1)CCc1ccccc1)c1cc(F)cc(F)c1 | 6.22 | – | – | – | – | – | – |
| O=C(O)c1ccc(C(=O)NCc2ccccc2C(=O)N[C@H](/C=C/S(=O)(=O)c2ccccc2)CCc2ccccc2)cc1 | 5.39 | – | – | – | 0.0031 | 0.0077 10^5/M/s | – |
| O=C(NCc1ccccc1C(=O)N[C@H](/C=C/S(=O)(=O)c1ccccc1)CCc1ccccc1)c1cccc(O)c1 | 6.19 | – | 36000 | 5.48 | – | – | – |
| O=C(NCc1ccccc1C(=O)N[C@H](/C=C(\F)S(=O)(=O)Cc1ccccc1)CCc1ccccc1)c1ccc2c(c1)OCCO2 | 6.31 | – | – | – | – | – | inhibition [17]: 15%; inhibition [3]: < 10%; inhibition [18]: Active; inhibition [5]: Active |
| O=C(NCc1ccccc1C(=O)N[C@H](/C=C/S(=O)(=O)Oc1ccccc1)CCc1ccccc1)c1cc(F)cc(F)c1 | 7.82 | 6.25 | – | – | 0.0117 | 7.8 10^5/M/s | Kinact [9]: 0.0022 s⁻¹; Second-order inactivation rate constant [10]: 3.92 10^3/M/s; pKi [11]: 6.12; Kinact [12]: 0.0071 s⁻¹; Kdiss [13]: 9.34 10^3/M/s; inhibition [14]: 33%; inhibition [19]: 14%; inhibition [15]: 35% |
| O=C(NCc1ccccc1C(=O)N[C@H](/C=C/S(=O)(=O)c1ccccc1)CCc1ccccc1)c1ccccc1 | 7.00 | 5.83 | > 100000 | 5.44 | – | – | pKi [11]: 5.70; inhibition [20]: 23%; inhibition [14]: 39%; inhibition [19]: 14% |
| O=C(NCc1ccccc1C(=O)N[C@H](/C=C(\F)S(=O)(=O)c1ccccc1)CCc1ccccc1)c1ccccc1 | 6.25 | 5.06 | 43000 | 5.48 | – | – | inhibition [3]: < 10%; inhibition [14]: 25% |
